# “And” between values parts separate entries of the source, which are not always exact repeats. Equal entries are not always repeated.
# Test system: hyperuricemic subjects with symptomatic gout
# Experiment: Pilot study of drug 1 versus placebo and open-label allopurinol in hyperuricemic subjects with symptomatic gout (Examples 1, 2, 20)
# Assay type: in vivo, human
# Experimental: Study Objectives • To compare the proportion of subjects whose sUA level is <6.0 mg/dL following 2 weeks of continuous treatment with drug 1 compared to allopurinol and placebo. • To evaluate the percent reduction from baseline in sUA levels following 2 weeks of continuous treatment with drug 1 in combination with allopurinol. • To evaluate the proportion of subjects whose sUA levels are <6.0 mg/dL, <5.0 mg/dL and <4.0 mg/dL at each visit. • To evaluate the absolute and percent reduction from baseline in sUA levels at each visit. • To evaluate the maximum percent reduction in sUA levels from baseline during the entire treatment period. • To evaluate percent change in 24-hour urine uric acid level from baseline to Day 15. • To evaluate the safety and tolerability of drug 1 in subjects with gout. • To evaluate the pharmacokinetics, safety and tolerability of drug 1 in combination with allopurinol in subjects with gout.
# A randomized, double-blind, placebo-controlled, dose titration, safety and pharmacodynamics pilot study, in approximately 26 hyperuricemic subjects with symptomatic gout enrolled at 2-3 investigational sites in N America, of: • drug 1 versus placebo and open-label allopurinol (Cohort 1); and • drug 1 in combination with allopurinol versus continued allopurinol alone (Cohort 2)
# Subjects are randomized 7 days prior to Day 1 in a double-blind fashion to receive drug 1, drug 1 matching placebo, or open-label allopurinol (Cohort 1) or drug 1 or drug 1 matching placebo in combination with allopurinol (Cohort 2).
# To reduce the incidence of gout flares, colchicine 0.6 mg qd is administered to all subjects starting 14 days prior to the Baseline (Day 1) visit. Subjects continue colchicine administration throughout the Treatment Period, discontinuing at the End of Study visit (one week after the last dose of study medication).
# Cohort 1 approx 20 subjects randomized in 2:1:1 ratio treatment groups—drug 1:placebo:allopurinol.
# Subjects randomized to double-blind treatment: • approx 10 subjects randomized to receive drug 1 200 mg qd (4 drug 1 50 mg capsules/day) for one week, followed by drug 1 400 mg qd (8 drug 1 50 mg capsules/day) for one week. • 5 subjects randomized to receive drug 1 matching placebo qd for 2 weeks (week 1-4 drug 1 matching placebo capsules; week 2-8 drug 1 matching placebo capsules)
# Subjects randomized to open-label treatment: • 5 subjects randomized to receive allopurinol 300 mg tablets qd for 2 weeks Cohort 2 approx 6 subjects randomized in 5:1 ratio treatment groups—drug+allopurinol:placebo+allopurinol
# For Cohorts 1 and 2, subjects randomized to double-blind treatment take drug 1 or drug 1 matching placebo every 24 hours (±1 h) (morning dose) for a period of 2 weeks. For Cohort 1, subjects randomized to open-label treatment take allopurinol every 24 hours (±1 h) (morning dose) for a period of 2 weeks.
# Subjects are requested to then drink approximately 240 mL of water 1-2 hours after dosing.
# 1. Male or post-menopausal or surgically sterile female. 2. 18-75 years of age. 3. Hyperuricemic, defined as: Cohort 1: Screening serum uric acid is ≥8 mg/dL Cohort 2: Screening serum uric acid is ≥10 mg/dL 4. Subject meets one or more of the 1977 American Rheumatism Association (ARA) criteria for the diagnosis of acute arthritis of primary gout. 5. Subject is willing and able to give informed consent and adhere to visit/protocol schedules.
# Blood samples (4.5 mL) are collected and sUA levels determined at Screening (repeated as necessary prior to Day 1), Baseline (Day 1) (1 hour and 8 hours post-dose), Day 8 (trough, 1 hour and 8 hours post-dose), Day 9 (24 hours after Day 8 dose), and Day 14 (trough and 8 hours post-dose), Day 15 and End of Study. An additional sUA level is obtained on Day 7 for Cohort 2 subjects prior to the first dose of allopurinol.
# Primary pharmacodynamics parameter is the proportion of subjects with serum uric acid <6.0 mg/dL following 2 weeks of treatment. […]
# [1] = Cohort 1, preliminary safety summary
smiles,measurement,setting,value
"O=C(O)CSc1nnc(Br)n1-c1ccc(C2CC2)c2ccccc12 [Drug 1, Sodium 2-(5-bromo-4-(4-cyclopropylnaphthalen-1-yl)-4H-1,2,4-triazol-3-ylthio)acetate]",ECG findings including interval measurements,[1],No clinically significant ECG findings
same,"Tolerability (SAEs, deaths, discontinuations due to adverse events)",[1],"well tolerated in this study, with no SAEs, deaths or discontinuations due to adverse events"
same,Responders Day 14 (those with sUA <6 mg/dL),"Cohort 1, Day 14, responders/subjects, drug 1 200 mg qd 1 week then 400 mg qd 1 week, allopurinol 300 mg qd 2 weeks",6/10^2
same,sUA at Day 14 of individual patients not below 6 mg/dL,"Day 14, two non-responders without baseline sUA above 11 mg/dL",6.2 mg/dL and 6.3 mg/dL
same,"Reduction in serum urate levels, on average",after the first week of treatment (200 mg qd),40%
same,"Reduction in sUA, patient with the lowest baseline CrCl",baseline CrCl 53 ml/min,40%
same,"Reduction in sUA, all patients with renal impairment","by the end of week 2, mild to moderate diminished renal function",≥ 30%
same,Plasma levels in gout patients,compared with Phase 1 healthy volunteer studies,generally consistent with those observed in Phase 1 healthy volunteer studies
same,Linear trend of sUA reduction versus creatinine clearance,"day 14, 400 mg qd, Cockcroft-Gault and MDRD methods",increasing benefit with lower CrCL
same,"Increase in serum creatinine (SCr), Grade 1 AE","two patients while on 400 mg QD, SCr fell back to normal limits after study",> 30%

# — patent publication US20180161314A1, “Methods for Treating Hyperuricemia and Related Diseases” (Ardea Biosciences, Inc., priority 2010, published 2018)
